Assay results reported in US6620828B2, “Thiazole compounds and pharmaceutical compositions for inhibiting protein kinases and methods for their use” (Agouron Pharmaceuticals, Inc., priority 1999, dated 2003).
pIC50, pKi: −log10 of the molar value.

Molecular target: T1, phosphorylated VEGF-R2Δ50 (FLVK-P) (Homo sapiens, UniProt P35968, DEL940-989/E990V)
T1 construct: VEGF-R2Δ50 contains residues 806-939 and 990-1171; made in house; host or cells: baculovirus/insect cells
Experiment: VEGF-R2 coupled spectrophotometric (FLVK-P) assay
Assay type: biochemical
Conditions: Table 2; at 20 (head μM)
From the text: VEGF-R2 Construct for Assay: This construct determines the ability of a test compound to inhibit tyrosine kinase activity. A construct (VEGF-R2Δ50) of the cytosolic domain of human vascular endothelial growth factor receptor 2 (VEGF-R2) lacking the 50 central residues of the 68 residues of the kinase insert domain was expressed in a baculovirus/insect cell system. Of the 1356 residues of full-length VEGF-R2, VEGF-R2Δ50 contains residues 806-939 and 990-1171, and also one point mutation (E990V) within the kinase insert domain relative to wild-type VEGF-R2. Autophosphorylation of the purified construct was performed by incubation of the enzyme at a concentration of 4 μM in the presence of 3 mM ATP and 40 mM MgCl2 in 100 mM Hepes, pH 7.5, containing 5% glycerol and 5 mM DTT, at 4° C. for 2 h. […] See Parast et al., Biochemistry, 37, 16788-16801 (1998).
Coupled Spectrophotometric (FLVK-P) Assay
The production of ADP from ATP that accompanies phosphoryl transfer was coupled to oxidation of NADH using phosphoenolpyruvate (PEP) and a system having pyruvate kinase (PK) and lactic dehydrogenase (LDH). The oxidation of NADH was monitored by following the decrease of absorbance at 340 nm (e340=6.22 cm^−1 mM^−1) using a Beckman DU 650 spectrophotometer. Assay conditions for phosphorylated VEGF-R2Δ50 (indicated as FLVK-P in the tables below) were the following: 1 mM PEP; 250 μM NADH; 50 units of LDH/mL; 20 units of PK/mL; 5 mM DTT; 5.1 mM poly(E4Y1); 1 mM ATP; and 25 mM MgCl2 in 200 mM Hepes, pH 7.5. Assay conditions for unphosphorylated VEGF-R2Δ50 (indicated as FLVK in the tables) were the following: 1 mM PEP; 250 μM NADH; 50 units of LDH/mL; 20 units of PK/mL; 5 mM DTT; 20 mM poly(E4Y1); 3 mM ATP; and 60 mM MgCl2 and 2 mM MnCl2 in 200 mM Hepes, pH 7.5. Assays were initiated with 5 to 40 nM of enzyme. Ki values were determined by measuring enzyme activity in the presence of varying concentrations of test compounds. The data were analyzed using Enzyme Kinetic and Kaleidagraph software.

T1 sequence (P35968 with tags, fused parts or gaps DEL940-989/E990V limits assumed): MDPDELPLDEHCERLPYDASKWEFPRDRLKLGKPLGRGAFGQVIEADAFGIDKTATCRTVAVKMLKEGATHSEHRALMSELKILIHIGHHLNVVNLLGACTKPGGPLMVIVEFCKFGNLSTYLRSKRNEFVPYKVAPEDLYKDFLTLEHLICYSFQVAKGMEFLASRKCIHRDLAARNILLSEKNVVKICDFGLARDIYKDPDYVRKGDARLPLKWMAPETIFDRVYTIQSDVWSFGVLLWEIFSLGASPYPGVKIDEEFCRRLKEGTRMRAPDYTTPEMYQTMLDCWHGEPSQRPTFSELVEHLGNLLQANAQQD

Row | FLVK-P % inhibition @ 20 [% @] | SMILES
1 | 71 | COc1cc(Nc2nc(N)c(C3=NC(c4ccc(Br)cc4)CO3)s2)cc(OC)c1OC (racemic) [I(12), (R/S)-5-[4-(4-Bromo-phenyl)-4,5-dihydro-oxazol-2-yl]-N^2-(3,4,5-trimethoxy-phenyl)-thiazole-2,4-diamine]

Same assay, conditions: Table 2; spectrophotometric assay

Row | pKi | SMILES
2 | 6.70 | COCOc1cccc(-c2noc(-c3sc(Nc4cc(OC)c(OC)c(OC)c4)nc3N)n2)c1 [B(4), 5-[3-(3-Methoxymethoxy-phenyl)-[1,2,4]oxadiazol-5-yl]-N^2-(3,4,5-trimethoxy-phenyl)-thiazole-2,4-diamine]

Test system: human umbilical vein endothelial cells (HUVEC)
Experiment: HUVEC proliferation assay
Assay type: cell-based
Conditions: Homo sapiens, HUVEC, 10 nM; crude combinatorial urea library; read-out: Inhibition of HUVEC Proliferation % inhibition @ 10 nM
Method in brief: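 Readout was MTT dye reduction (A595) after 72 h of stimulation with VEGF at 6 ng/ml final. Compound, in 0.1% DMSO final, was added 1 h before VEGF to HUVEC starved 24 h in 1% FBS. % inhibition was scaled between VEGF-alone and unstimulated wells; IC50 was fitted from triplicate dose curves.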

Row | SMILES | inhibition at 0.01 µM [%]
3 | CNC(=O)Nc1nc(N)c(-c2nc(-c3cccc(NC(=O)c4cccc(OC)c4)c3)cs2)s1 [drawing 606] | 15

Same assay, conditions: Homo sapiens, HUVEC, 50 nM; crude combinatorial urea library; read-out: Inhibition of HUVEC Proliferation % inhibition @ 50 nM

Row | SMILES | inhibition at 0.05 µM [%]
4 | CNC(=O)Nc1nc(N)c(-c2nc(-c3cccc(NC(=O)c4cccc(OC)c4)c3)cs2)s1 [drawing 606] | 115

Same assay, conditions: Homo sapiens, HUVEC, Inhibition of HUVEC Proliferation; 50 nM; crude combinatorial urea library; read-out: % inhibition @ 50 nM

Row | SMILES | inhibition at 0.05 µM [%]
5 | COc1cccc(C(=O)Nc2cc(-c3csc(-c4sc(NC(=O)NCCCN5CCCC5=O)nc4N)n3)c(F)cc2F)c1 [drawing 675] | 105
6 | COc1cccc(C(=O)Nc2cc(-c3csc(-c4sc(NC(=O)NCc5ccccc5)nc4N)n3)c(F)cc2F)c1 [drawing 678] | 93
7 | COc1cccc(C(=O)Nc2cc(-c3csc(-c4sc(NC(=O)NCCOCCO)nc4N)n3)c(F)cc2F)c1 [drawing 699] | 98
8 | COc1cccc(C(=O)Nc2cc(-c3csc(-c4sc(NC(=O)NCCN5CCOCC5)nc4N)n3)c(F)cc2F)c1 [drawing 700] | 96
9 | COc1cccc(C(=O)Nc2cc(-c3csc(-c4sc(NC(=O)NCCN5CCCC5)nc4N)n3)c(F)cc2F)c1 [drawing 703] | 93
10 | COCC(C)NC(=O)Nc1nc(N)c(-c2nc(-c3cc(NC(=O)c4cccc(OC)c4)c(F)cc3F)cs2)s1 (centres unmarked) [drawing 704] | 93
11 | COc1cccc(C(=O)Nc2cc(-c3csc(-c4sc(NC(=O)NCc5ccccn5)nc4N)n3)c(F)cc2F)c1 [drawing 705] | 118
12 | COc1cccc(C(=O)Nc2cc(-c3csc(-c4sc(NC(=O)NCCc5ccncc5)nc4N)n3)c(F)cc2F)c1 [drawing 753] | 98

Same assay, conditions: Homo sapiens, HUVEC, Inhibition of HUVEC Proliferation; 50 nM; crude combinatorial urea library; read-out: Inhibition @ 50 nM

Row | SMILES | inhibition at 0.05 µM [%]
13 | COc1cccc(C(=O)Nc2cc(-c3noc(-c4sc(NC(=O)NCC5CCCO5)nc4N)n3)c(F)cc2F)c1 (centres unmarked) [drawing 762] | 107
14 | COc1cccc(C(=O)Nc2cc(-c3noc(-c4sc(NC(=O)NCCCN5CCCC5=O)nc4N)n3)c(F)cc2F)c1 [drawing 763] | 106
15 | COc1cccc(C(=O)Nc2cc(-c3noc(-c4sc(NC(=O)N[C@H]5CC[C@H](O)CC5)nc4N)n3)c(F)cc2F)c1 [drawing 770] | 92
16 | CNC(=O)Nc1nc(N)c(-c2nc(-c3cc(NC(=O)c4cccc(OC)c4)c(F)cc3F)no2)s1 [drawing 782] | 105
17 | COc1cccc(C(=O)Nc2cc(-c3noc(-c4sc(NC(=O)NCCOCCO)nc4N)n3)c(F)cc2F)c1 [drawing 787] | 98
18 | COc1cccc(C(=O)Nc2cc(-c3noc(-c4sc(NC(=O)NCCN5CCOCC5)nc4N)n3)c(F)cc2F)c1 [drawing 788] | 106
19 | COc1cccc(C(=O)Nc2cc(-c3noc(-c4sc(NC(=O)NCC(N)=O)nc4N)n3)c(F)cc2F)c1 [drawing 803] | 30
20 | COc1cccc(C(=O)Nc2cc(-c3noc(-c4sc(NC(=O)NCC(C)C)nc4N)n3)c(F)cc2F)c1 [drawing 804] | 20
21 | COc1cccc(C(=O)Nc2cc(-c3noc(-c4sc(NC(=O)NCCO)nc4N)n3)c(F)cc2F)c1 [drawing 806] | 19

Same assay, conditions: Homo sapiens, HUVEC, Table 3

Row | SMILES | pIC50
22 | COc1cccc(C(=O)Nc2cc(-c3csc(-c4sc(NC(=O)NCc5ccccc5)nc4N)n3)c(F)cc2F)c1 [O(13), N-{5-[4′-Amino-2′-(3-benzyl-ureido)-[2,5′]bithiazolyl-4-yl]-2,4-difluoro-phenyl}-3-methoxy-benzamide] | 6.85

Same assay, conditions: Homo sapiens, HUVEC, Table I screening results; 150 nM; crude combinatorial amide library

Row | SMILES | inhibition at 0.15 µM [%]
23 | COc1cc(Nc2nc(N)c(-c3nc(-c4cccc(NC(=O)c5cc6ccccc6o5)c4)cs3)s2)cc(OC)c1OC [drawing 844] | 40
24 | COc1cc(Nc2nc(N)c(-c3nc(-c4cccc(NC(=O)c5ccccc5)c4)cs3)s2)cc(OC)c1OC [drawing 845] | 33
25 | COc1cc(Nc2nc(N)c(-c3nc(-c4cccc(NC(=O)COc5ccccc5)c4)cs3)s2)cc(OC)c1OC [drawing 868] | 10
26 | COc1cc(Nc2nc(N)c(-c3nc(-c4cccc(NC(=O)CCc5ccccc5)c4)cs3)s2)cc(OC)c1OC [drawing 884] | 4
27 | COc1cc(Nc2nc(N)c(-c3nc(-c4cccc(NC(=O)c5sc(C)nc5C)c4)cs3)s2)cc(OC)c1OC [drawing 894] | 19
28 | COc1cc(Nc2nc(N)c(-c3nc(-c4cccc(NC(=O)c5cnc6ccccc6c5)c4)cs3)s2)cc(OC)c1OC [drawing 896] | 42
29 | COc1cc(Nc2nc(N)c(-c3nc(-c4cccc(NC(=O)c5ncoc5-c5ccccc5)c4)cs3)s2)cc(OC)c1OC [drawing 897] | 64
30 | COc1cc(Nc2nc(N)c(-c3nc(-c4cccc(NC(=O)c5ccc(C)s5)c4)cs3)s2)cc(OC)c1OC [drawing 916] | 32
31 | COc1cc(Nc2nc(N)c(-c3nc(-c4cccc(NC(=O)c5ccc(Br)o5)c4)cs3)s2)cc(OC)c1OC [drawing 929] | 34
32 | COc1cccc(C(=O)Nc2cccc(-c3csc(-c4sc(Nc5cc(OC)c(OC)c(OC)c5)nc4N)n3)c2)c1 [drawing 999] | 108

Same assay, conditions: Homo sapiens, HUVEC, Table II screening results; 1 nM; crude combinatorial amide library

Row | SMILES | inhibition at 0.001 µM [%]
33 | CNC(=O)Nc1nc(N)c(-c2nc(-c3cccc(NC(=O)c4cccc(OC)c4)c3)cs2)s1 [drawing 1034] | 2

Same assay, conditions: Homo sapiens, HUVEC, Table II screening results; 10 nM; crude combinatorial amide library; read-out: % inhibition @ 10 nM

Row | SMILES | inhibition at 0.01 µM [%]
34 | CNC(=O)Nc1nc(N)c(-c2nc(-c3cccc(NC(=O)c4cccc(OC)c4)c3)cs2)s1 [drawing 1034] | 91

Same assay, conditions: Homo sapiens, HUVEC, table following Table II (untitled); 1 nM; crude combinatorial library

Row | SMILES | inhibition at 0.001 µM [%]
35 | COc1cccc(C(=O)Nc2ccc(C)c(-c3noc(-c4sc(Nc5cc(OC)c(OC)c(OC)c5)nc4N)n3)c2)c1 [drawing 1122] | 35

Same assay, conditions: Homo sapiens, HUVEC, table following Table II (untitled); 10 nM; crude combinatorial library; read-out: % inhibition @ 10 nM

Row | SMILES | inhibition at 0.01 µM [%]
36 | COc1cccc(C(=O)Nc2ccc(C)c(-c3noc(-c4sc(Nc5cc(OC)c(OC)c(OC)c5)nc4N)n3)c2)c1 [drawing 1122] | 94

Same assay, conditions: Table I screening results; 150 nM; crude combinatorial amide library

Row | SMILES | % inhibition @ 150 nM [%]
37 | COc1cc(Nc2nc(N)c(-c3nc(-c4cccc(NC(=O)Cc5ccccc5C)c4)cs3)s2)cc(OC)c1OC | 0
38 | COc1cc(Nc2nc(N)c(-c3nc(-c4cccc(NC(=O)/C=C/c5cccc(F)c5)c4)cs3)s2)cc(OC)c1OC | 0
39 | COc1ccccc1CCC(=O)Nc1cccc(-c2csc(-c3sc(Nc4cc(OC)c(OC)c(OC)c4)nc3N)n2)c1 | 0
40 | COc1cc(CCC(=O)Nc2cccc(-c3csc(-c4sc(Nc5cc(OC)c(OC)c(OC)c5)nc4N)n3)c2)cc(OC)c1OC | 0
41 | COc1cc(Nc2nc(N)c(-c3nc(-c4cccc(NC(=O)CCc5ccccc5Cl)c4)cs3)s2)cc(OC)c1OC | 0
42 | COc1cc(Nc2nc(N)c(-c3nc(-c4cccc(NC(=O)/C=C/c5ccc6c(c5)OCO6)c4)cs3)s2)cc(OC)c1OC | 0
43 | COc1cc(Nc2nc(N)c(-c3nc(-c4cccc(NC(=O)C(C)c5ccc(CC(C)C)cc5)c4)cs3)s2)cc(OC)c1OC (centres unmarked) | 0
44 | COc1ccc(CC(=O)Nc2cccc(-c3csc(-c4sc(Nc5cc(OC)c(OC)c(OC)c5)nc4N)n3)c2)cc1 | 0
45 | COc1cc(Nc2nc(N)c(-c3nc(-c4cccc(NC(=O)Cn5cnc6c5c(=O)n(C)c(=O)n6C)c4)cs3)s2)cc(OC)c1OC | 0

Same assay, conditions: Table I screening results; 150 nM; crude combinatorial amide library; 0.15 µM

Row | SMILES | % inhibition @ 150 nM [%]
46 | COc1cc(Nc2nc(N)c(-c3nc(-c4cccc(NC(=O)c5ccc(C(C)C)cc5)c4)cs3)s2)cc(OC)c1OC [drawing 943] | 6
47 | COc1cc(Nc2nc(N)c(-c3nc(-c4cccc(NC(=O)c5ccc(C(C)C)cc5)c4)cs3)s2)cc(OC)c1OC [drawing 1003] | 17
